The numbers were not newly measured in US9750251B2, “Liquid herbicidal preparations” (BAYER INTELLECTUAL PROPERTY GMBH, priority 2008, dated 2017), which cites them from elsewhere.

In brackets after ≈: the same amount, converted by molar mass.

The conditions of the data set: at 25° C.

Take `CCOC1Oc2ccc(OS(C)(=O)=O)cc2C1(C)C` (racemic) [ethofumesate]: the water solubility is 50 µg/mL (≈ 175 µM).
